Measured values: patent US4401667A, “Cephalosporins” (Karl Thomae Gesellschaft mit beschrankter Haftung, priority 1980, dated 1983)
In brackets after ≈: the same amount, converted by molar mass. Like-named read-outs stand apart in the source and are kept apart here.

Columns and labels:
[1] = tested on: E. coli ATCC 11 775; experiment: experimental E. coli infection in mice; format: in vivo, mice (female, NMRI strain); details: Escherichia coli, ATCC11, sc, 168 h, s.c. administration, once 1 hour after intraperitoneal infection, observation 7 days, read-out: ED50 (dose at which 50% of the animals survive)
Protocol: Test compounds A-D of the invention and cefuroxim were tested in vivo against experimental infections in mice. E.coli ATCC 11 775 was used as the pathogenic bacteria. An intraperitoneal infection was induced with 0.2 ml of a 5% mucin suspension of the bacteria. This corresponds to approximately 1.4×10^6 E. coli bacteria per mouse. […] The treatment was applied once (1 hour after infection). The observation period was 7 days.

[2] = tested on: Enterobacter Cloaceae ATCC 13047; experiment: serial dilution test in the microtiter system (MIC); format: cell-based; details: Ent. cloacae ATCC 13047; 37° C., 18 to 20 hours
Protocol: (§1) The tests were performed using the serial dilution test in the microtiter system. […] The nutrient medium consisted of 10 gm of peptone, 8 gm of meat extract oxoid, 3 gm of sodium chloride, and 2 gm of sec. sodium phosphate diluted with distilled water to 100 ml (pH 7.2-7.4). The age of the primary cultures was approximately 20 hours. The standardization of the bacteria suspension was effected using a photometer according to the method of Eppendorf (test tube .phi. 14 mm, filter 546 nm), using for comparison a barium sulfate suspension formed by the addition of 3.0 ml of 1% barium chloride solution to 97 ml of 1% sulfuric acid. After standardization, the test microorganisms were further diluted to a concentration of 1:1500, using a sodium chloride solution.
(§2) 16 mgm of the particular test compound were put into a 10 ml measuring flask, and the flask was subsequently filled to the mark with the solvent. The further dilution series was standardized with distilled water or the appropriate solvent.
(§3) The depressions of the microtiter plates were filled with 0.2 ml of nutrient medium. 0.01 ml of the appropriate test compound solution was then added, followed by inoculation with 0.01 ml (1 drop) of the standardized bacteria suspension. The bacteria were incubated at 37° C. for 18 to 20 hours. Control tests using only the solvent were carried out simultaneously.
(§4) The readings were made macroscopically to determine the minimum inhibitory concentration (the lowest still bacteriostatically effective concentration).
(§5) The following test organisms were used:
(§6) Staphylococcus aureus SG 511, Escherichia coli ATCC 11 775, Pseudomonas aeruginosa hamburgensis and Pseudomonas aeruginosa BC 19, Serratia marcescens ATCC 13 880, Klebsiella pneumoniae ATCC 10 031 and BC 6, Proteus mirabilis BC 17, Proteus rettgeri BC 7, Enterobacter Cloaceae ATCC 13047 and E. coli R+TEM (β-lactamase carrier).

[3] = tested on: Klebsiella pneumoniae BC 6; experiment: as above; format: cell-based
Protocol: as §1, §2, §3, §4, §5, §6

[4] = tested on: Pseudomonas aeruginosa hamburgensis; experiment: as above; format: cell-based
Protocol: as §1, §2, §3, §4, §5, §6

[5] = tested on: Escherichia coli ATCC 11 775; experiment: as above; format: cell-based; details: E. coli ATCC 11775, 37° C., 18 to 20 hours
Protocol: as §1, §2, §3, §4, §5, §6

[6] = tested on: Staphylococcus aureus SG 511; experiment: as above; format: cell-based; details: SG511, Staph. aureus SG 511, 37° C., 18 to 20 hours
Protocol: as §1, §2, §3, §4, §5, §6

[7] = tested on: Klebsiella pneumoniae ATCC 10 031; experiment: as above; format: cell-based; details: Kl. pneum. ATCC 10031, 37° C., 18 to 20 hours
Protocol: as §1, §2, §3, §4, §5, §6

[8] = tested on: Proteus mirabilis BC 17; experiment: as above; format: cell-based; details: BC17, Prot. mirab. BC 17, 37° C., 18 to 20 hours
Protocol: as §1, §2, §3, §4, §5, §6

[9] = tested on: Serratia marcescens ATCC 13 880; experiment: as above; format: cell-based; details: Serr. marcesc. ATCC 13880, 37° C., 18 to 20 hours
Protocol: as §1, §2, §3, §4, §5, §6

[10] = tested on: E. coli R+TEM (β-lactamase carrier); experiment: as above; format: cell-based; details: Escherichia coli
Protocol: as §1, §2, §3, §4, §5, §6

[11] = tested on: Proteus rettgeri BC 7; experiment: as above; format: cell-based; details: Providencia rettgeri, BC7; Prot. rettg.; 37° C., 18 to 20 hours
Protocol: as §1, §2, §3, §4, §5, §6

[12] = tested on: Pseudomonas aeruginosa BC 19; experiment: as above; format: cell-based
Protocol: as §1, §2, §3, §4, §5, §6

[13] = BC6, Kl. pneum. BC 6, 37° C., 18 to 20 hours, read-out: MIC
[14] = Pseud. Hbg., 37° C., 18 to 20 hours, read-out: MIC
[15] = BC19, Pseud. BC 19, 37° C., 18 to 20 hours, read-out: MIC

| Structure (SMILES) | ED50 [1] [mg/kg] | MIC [2] [µg/mL] | MIC [3, 13] [µg/mL] | MIC [4, 14] [µg/mL] | MIC [5] [µg/mL] | MIC [6] [µg/mL] | MIC [7] [µg/mL] | MIC [8] [µg/mL] | MIC [9] [µg/mL] | MIC [10] [µg/mL] | MIC [11] [µg/mL] | MIC ([12]; BC19) [µg/mL] | MIC [12, 15] [µg/mL] | MIC ([3]; BC6) [µg/mL] | MIC [4] [µg/mL] |
| --- | --- | --- | --- | --- | --- | --- | --- | --- | --- | --- | --- | --- | --- | --- | --- |
| NS(=O)(=O)c1ccc(CNc2ncc(NC(=O)N[C@@H](C(=O)N[C@@H]3C(=O)N4C(C(=O)O)=C(CSc5nnnn5CCO)CS[C@H]34)c3ccc(O)cc3)c(O)n2)s1 [B] | 0.4 | 0.25 (≈ 0.299 µM) | 0.25 (≈ 0.299 µM) | 4 (≈ 4.79 µM) | 0.06 (≈ 0.0719 µM) | 1 (≈ 1.2 µM) | 0.12 (≈ 0.144 µM) | 0.12 (≈ 0.144 µM) | 0.25 (≈ 0.299 µM) | 4 (≈ 4.79 µM) | 0.25 (≈ 0.299 µM) | 2 (≈ 2.4 µM) |  |  |  |
| NC(=O)CCn1nnnc1SCC1=C(C(=O)O)N2C(=O)[C@@H](NC(=O)[C@H](NC(=O)Nc3cnc(NCc4ccc(S(N)(=O)=O)s4)nc3O)c3ccc(O)cc3)[C@H]2SC1 [C, Sodium 7β-{D-α-[3-(2-(5'-aminosulfonyl-2'-thienylmethylamino)-4-hydroxy-5-pyrimidinyl)-ureido]-p-hydroxyphenylacetamido}-3-{[1-(2'-aminocarbonylethyl)-tetrazol-5-yl]-thiomethyl}ceph-3-em-4-carboxylate] | 0.7 | 0.25 | 0.25 | 4 | 0.12 | 1 | 0.25 | 0.25 | 0.5 | 4 | 0.5 |  | 4 |  |  |
| CO/N=C(\C(=O)N[C@@H]1C(=O)N2C(C(=O)O)=C(COC(N)=O)CS[C@H]12)c1ccco1 [Cefuroxim, cefuroxim, reference compound] | > 100 | 32 (≈ 75.4 µM) |  |  | 8 (≈ 18.9 µM) | 1 (≈ 2.36 µM) | 2 (≈ 4.71 µM) | 0.5 (≈ 1.18 µM) | 8 (≈ 18.9 µM) | 4 (≈ 9.43 µM) | 2 (≈ 4.71 µM) |  |  | 4 (≈ 9.43 µM) |  |
| O=C(Nc1cnc(NCc2cccnc2)nc1O)N[C@@H](C(=O)N[C@@H]1C(=O)N2C(C(=O)O)=C(CSc3nnnn3CCO)CS[C@H]12)c1ccc(O)cc1 [A, Sodium 7β-{D-α-[3-(4-hydroxy-2-(3'-pyridylmethylamino)-5-pyrimidinyl)-ureido]-p-hydroxyphenylacetamido}-3-{[1-(2'-hydroxyethyl)-tetrazol-5-yl]-thiomethyl}-ceph-3-em-4-carboxylate] | 0.9 | 0.5 | 0.5 |  | 0.12 | 1 | 0.25 | 0.12 | 0.25 | 8 | 0.5 | 4 |  |  | 8 |
| CS(=O)(=O)CCn1nnnc1SCC1=C(C(=O)O)N2C(=O)[C@@H](NC(=O)[C@H](NC(=O)Nc3cnc(NCc4ccco4)nc3O)c3ccc(O)cc3)[C@H]2SC1 [D, Sodium 7β-{D-α-[3-(2-(2'-furylmethylamino)-4-hydroxy-5-pyrimidinyl)-ureido]-p-hydroxyphenylacetamido}-3-{[1-(2'-methylsulfonylethyl)tetrazol-5-yl]-thiomethyl}-ceph-3-em-4-carboxylate] | 1 to 2 | 0.5 | 0.5 | 8 | 0.25 | 0.5 | 0.25 | 0.25 | 0.5 | 8 | 1 |  | 8 |  |  |
